Results as given in US10519177B2, “Heterocyclic compounds and uses thereof” (Plexxikon Inc., priority 2013, dated 2019).

Legend:
BRD4-BD12 (1-477) = BRD4-BD12 (1-477) (Homo sapiens (Human), UniProt O60885); test: Alphascreen binding assay BRD4-BD12; details: BRD4(1 2) H4; read-out: Biochemical activity (IC50 μM) BRD4(1 2) H4
Procedure, shortened: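 First, compound was preincubated 1 h at room temperature with the His-tagged BRD4 protein (BD1 44-164 or tandem BD12 1-477) and acetylated H4 peptide. Next, donor and acceptor beads were added at 7.5 μg/ml final. After 30 min, AlphaScreen emission was recorded.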

MV-4-11 cells = test: Oncology cell growth assay MV-4-11 (CellTiter Glo); format: cell-based; details: Homo sapiens, MV4-11, 72 h; MV-4-11, 3d growth; read-out: Cell activity (IC50 μM) MV-4-11 3d-Growth
Procedure, shortened: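 MV-4-11 AML cells (MLL-AF4), 3000 per well, exposed to 8-point 1:3 compound titration from 10 μM top concentration (0.2% DMSO) for 72 h. Viability by CellTiter Glo luminescence, normalized to DMSO controls; pIC50 from four-parameter curve fit.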

Row | SMILES | IC50 (BRD4-BD12 (1-477)) [µM] | IC50 (MV-4-11 cells) [µM]
1 | COc1ccccc1Cn1cc(-c2ccc(C(=O)O)cc2)c2ncc(-c3c(C)noc3C)cc21 [P-0934, 4-[6-(3,5-dimethylisoxazol-4-yl)-1-[(2-methoxyphenyl)methyl]pyrrolo[3,2-b]pyridin-3-yl]benzoic acid] | < 1 | < 1
2 | Cc1noc(C)c1-c1cnc2c(-c3ccc(CC(=O)O)cc3)cn(Cc3ccccn3)c2c1 [P-0973, 2-[4-[6-(3,5-dimethylisoxazol-4-yl)-1-(2-pyridylmethyl)pyrrolo[3,2-b]pyridin-3-yl]phenyl]acetic acid] | < 1 | < 1
3 | Cc1noc(C)c1-c1cnc2c(-c3ccc(CC(=O)O)cc3)cn(C(c3ccccn3)C3CCCCC3)c2c1 (centres unmarked) [P-1018, 2-[4-[1-[cyclohexyl(2-pyridyl)methyl]-6-(3,5-dimethylisoxazol-4-yl)pyrrolo[3,2-b]pyridin-3-yl]phenyl]acetic acid] | < 1 | < 1
4 | Cc1cc(-c2cn(C(c3ccccc3)c3ccccn3)c3cc(-c4c(C)noc4C)ccc23)ccc1C(=O)O (centres unmarked) [P-1045, 4-[6-(3,5-dimethylisoxazol-4-yl)-1-[phenyl(2-pyridyl)methyl]indol-3-yl]-2-methyl-benzoic acid] | < 1 | < 1
5 | COC(=O)c1ccc(-c2cn(Cc3cccc(C)n3)c3cc(-c4c(C)noc4C)cnc23)cc1OC [P-0939, methyl 4-[6-(3,5-dimethylisoxazol-4-yl)-1-[(6-methyl-2-pyridyl)methyl]pyrrolo[3,2-b]pyridin-3-yl]-2-methoxy-benzoate] | < 1 | < 1
6 | CNC(=O)c1ccc(-c2cn([C@@H](C)c3ccccn3)c3cc(-c4c(C)noc4C)cnc23)cc1 [P-0977, 4-[6-(3,5-dimethylisoxazol-4-yl)-1-[(1S)-1-(2-pyridyl)ethyl]pyrrolo[3,2-b]pyridin-3-yl]-N-methyl-benzamide] | < 1 | < 1
7 | CC[C@H](c1ccccn1)n1cc(-c2ccc(CC(=O)OC)cc2)c2ncc(-c3c(C)noc3C)cc21 [P-0961, methyl 2-[4-[6-(3,5-dimethylisoxazol-4-yl)-1-[(1R)-1-(2-pyridyl)propyl]pyrrolo[3,2-b]pyridin-3-yl]phenyl]acetate] | < 1 | < 1
8 | COC(=O)c1ccc(-c2cn(C(c3ccccn3)C3CCCC3)c3cc(-c4c(C)noc4C)cnc23)cc1 (centres unmarked) [P-0993, methyl 4-[1-[cyclopentyl(2-pyridyl)methyl]-6-(3,5-dimethylisoxazol-4-yl)pyrrolo[3,2-b]pyridin-3-yl]benzoate] | < 1 | < 1
9 | Cc1noc(C)c1-c1cnc2c(-c3ccc(C4(N)CC4)cc3)cn(CC3CCC(F)(F)CC3)c2c1 [P-0911, 1-[4-[1-[(4,4-difluorocyclohexyl)methyl]-6-(3,5-dimethylisoxazol-4-yl)pyrrolo[3,2-b]pyridin-3-yl]phenyl]cyclopropanamine] | < 1 | < 1
10 | Cc1noc(C)c1-c1cnc2c(-c3ccc(COC(C)(C)C)cc3)cn(CC3CCC(F)(F)CC3)c2c1 [P-0910, 4-[3-[4-(tert-butoxymethyl)phenyl]-1-[(4,4-difluorocyclohexyl)methyl]pyrrolo [3,2-b]pyridin-6-yl]-3,5-dimethyl-isoxazole] | < 1 | < 1
11 | Cc1noc(C)c1-c1ccc2c(I)cn(C(c3ccccc3)c3ccccn3)c2c1 (centres unmarked) [P-0991, 4-[3-iodo-1-[phenyl(2-pyridyl)methyl]indol-6-yl]-3,5-dimethyl-isoxazole] | < 1 | < 1
12 | COC(=O)c1cc(-c2cn([C@@H](C)c3ccccn3)c3cc(-c4c(C)noc4C)cnc23)ccc1C [P-0998, methyl 5-[6-(3,5-dimethylisoxazol-4-yl)-1-[(1S)-1-(2-pyridyl)ethyl]pyrrolo[3,2-b]pyridin-3-yl]-2-methyl-benzoate] | < 1 | < 1
13 | COC(=O)Cc1ccc(-c2cn(C(c3ccccc3)c3ccccn3)c3cc(-c4c(C)noc4C)cnc23)cc1 (centres unmarked) [P-0902, methyl 2-[4-[6-(3,5-dimethylisoxazol-4-yl)-1-[phenyl(2-pyridyl)methyl]pyrrolo[3,2-b]pyridin-3-yl]phenyl]acetate] | < 1 | < 1
14 | Cc1noc(C)c1-c1cnc2c(I)cn(Cc3ncccc3F)c2c1 [P-0947, 4-[1-[(3-fluoro-2-pyridyl)methyl]-3-iodo-pyrrolo[3,2-b]pyridin-6-yl]-3,5-dimethyl-isoxazole] | < 1 | < 1
15 | Cc1cccc(Cn2cc(-c3ccc(C(=O)O)cc3)c3ncc(-c4c(C)noc4C)cc32)n1 [P-0916, 4-[6-(3,5-dimethylisoxazol-4-yl)-1-[(6-methyl-2-pyridyl)methyl]pyrrolo[3,2-b]pyridin-3-yl]benzoic acid] | < 1 | < 1
16 | Cc1noc(C)c1-c1cnc2c(-c3cnn(C)c3)cn(CC3(C)CCOCC3)c2c1 [P-0945, 3,5-dimethyl-4-[3-(1-methylpyrazol-4-yl)-1-[(4-methyltetrahydropyran-4-yl)methyl]pyrrolo[3,2-b]pyridin-6-yl]isoxazole] | < 1 | < 1

Row | SMILES | IC50 (BRD4-BD12 (1-477)) [µM] | IC50 (MV-4-11 cells) [µM]
17 | Cc1noc(C)c1-c1cnc2c(I)cn(Cc3ccncc3)c2c1 [P-0935, 4-[3-iodo-1-(4-pyridylmethyl)pyrrolo[3,2-b]pyridin-6-yl]-3,5-dimethyl-isoxazole] | < 1 | < 1
18 | Cc1noc(C)c1-c1ccc2c(-c3ccc(C(=O)O)cc3)cn([C@@H](C)c3ccccn3)c2c1 [P-1030, 4-[6-(3,5-dimethylisoxazol-4-yl)-1-[(1S)-1-(2-pyridyl)ethyl]indol-3-yl]benzoic acid] | < 1 | < 1
19 | Cc1ccc(-c2cn([C@@H](C)c3ccccn3)c3cc(-c4c(C)noc4C)cnc23)cc1 [P-0900, 3,5-dimethyl-4-[3-(p-tolyl)-1-[(1S)-1-(2-pyridyl)ethyl]pyrrolo[3,2-b]pyridin-6-yl]isoxazole] | < 1 | < 1
20 | Cc1cc(-c2cn(C(c3ccccn3)C3CCCC3)c3cc(-c4c(C)noc4C)cnc23)ccc1C(=O)O (centres unmarked) [P-1038, 4-[1-[cyclopentyl(2-pyridyl)methyl]-6-(3,5-dimethylisoxazol-4-yl)pyrrolo[3,2-b]pyridin-3-yl]-2-methyl-benzoic acid] | < 1 | < 1
21 | Cc1noc(C)c1-c1cnc2c(-c3ccc(CC(=O)O)cc3)cn(C(c3ccccc3)c3ccccn3)c2c1 (centres unmarked) [P-0903, 2-[4-[6-(3,5-dimethylisoxazol-4-yl)-1-[phenyl(2-pyridyl)methyl]pyrrolo[3,2-b]pyridin-3-yl]phenyl]acetic acid] | < 1 | < 1
22 | COC(=O)c1ccc(-c2cn(Cc3ncccc3F)c3cc(-c4c(C)noc4C)cnc23)cc1 [P-0948, methyl 4-[6-(3,5-dimethylisoxazol-4-yl)-1-[(3-fluoro-2-pyridyl)methyl]pyrrolo[3,2-b]pyridin-3-yl]benzoate] | < 1 | < 1
23 | COC(=O)c1ccc(-c2cn(CC3CCCCC3)c3cc(-c4c(C)noc4C)cnc23)cc1OC [P-0904, methyl 4-[1-(cyclohexylmethyl)-6-(3,5-dimethylisoxazol-4-yl)pyrrolo[3,2-b]pyridin-3-yl]-2-methoxy-benzoate] | < 1 | < 1
24 | CC[C@@H](c1ccccn1)n1cc(-c2ccc(C(=O)O)cc2F)c2ncc(-c3c(C)noc3C)cc21 [P-1025, 4-[6-(3,5-dimethylisoxazol-4-yl)-1-[(1S)-1-(2-pyridyl)propyl]pyrrolo[3,2-b]pyridin-3-yl]-3-fluoro-benzoic acid] | < 1 | < 1
25 | Cc1ncc(Cn2cc(-c3ccc(C(=O)O)cc3)c3ncc(-c4c(C)noc4C)cc32)s1 [P-0958, 4-[6-(3,5-dimethylisoxazol-4-yl)-1-[(2-methylthiazol-5-yl)methyl]pyrrolo[3,2-b]pyridin-3-yl]benzoic acid] | < 1 | < 1
26 | COC(=O)c1ccc(-c2cn(Cc3ccccc3OC)c3cc(-c4c(C)noc4C)cnc23)cc1 [P-0933, methyl 4-[6-(3,5-dimethylisoxazol-4-yl)-1-[(2-methoxyphenyl)methyl]pyrrolo[3,2-b]pyridin-3-yl]benzoate] | < 1 | 1 to 10
27 | COc1ccccc1Cn1cc(I)c2ncc(-c3c(C)noc3C)cc21 [P-0932, 4-[3-iodo-1-[(2-methoxyphenyl)methyl]pyrrolo[3,2-b]pyridin-6-yl]-3,5-dimethyl-isoxazole] | < 1 | < 1
28 | Cc1noc(C)c1-c1cnc2c(-c3ccc(NS(C)(=O)=O)cc3)cn([C@@H](C)c3ccccn3)c2c1 [P-0979, N-[4-[6-(3,5-dimethylisoxazol-4-yl)-1-[(1S)-1-(2-pyridyl)ethyl]pyrrolo[3,2-b]pyridin-3-yl]phenyl]methanesulfonamide] | < 1 | < 1
29 | COC(=O)c1ccc(-c2cn(Cc3ccncc3)c3cc(-c4c(C)noc4C)cnc23)cc1 [P-0936, methyl 4-[6-(3,5-dimethylisoxazol-4-yl)-1-(4-pyridylmethyl)pyrrolo[3,2-b]pyridin-3-yl]benzoate] | < 1 | < 1
30 | COC(=O)c1ccc(-c2cn(C(c3ccccn3)C3CCC3)c3cc(-c4c(C)noc4C)cnc23)cc1 (centres unmarked) [P-1011, methyl 4-[1-[cyclobutyl(2-pyridyl)methyl]-6-(3,5-dimethylisoxazol-4-yl)pyrrolo[3,2-b]pyridin-3-yl]benzoate] | < 1 | < 1
31 | Cc1noc(C)c1-c1cnc2c(-c3ccc(C(=O)O)cc3)cn([C@@H](c3ccccn3)C3CC3)c2c1 [P-0987, 4-[1-[(R)-cyclopropyl(2-pyridyl)methyl]-6-(3,5-dimethylisoxazol-4-yl)pyrrolo[3,2-b]pyridin-3-yl]benzoic acid] | < 1 | < 1
